# Test results from the supplement of paper PMC12317010.
# Experiment: collision cross section in nitrogen (drift tube, single-field); higher = larger gas-phase ion size
# [1] = ion type: [M-H], ion source: ESI, ion mode: Negative
# [2] = ion type: [M+Na], ion source: ESI, ion mode: Positive
# [3] = ion type: [M+H], ion source: ESI, ion mode: Positive
# [4] = ion type: [M+H], ion source: APCI, ion mode: Positive
# [5] = ion type: [M+], ion source: APCI, ion mode: Positive
# 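Also: chemical standards at 10 µM analysed by drift tube IMS-QTOF MS in about 3.95 torr nitrogen, mean of duplicate injections differing ≤1%, mass error below 10 ppm.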
SMILES,collision cross section in nitrogen [1],collision cross section in nitrogen [3],further results
CCCCc1ccc(O)cc1 [4-Butylphenol],140.6 Å²,,
Cc1cc(Cl)ccc1O [4-Chloro-2-methylphenol],124.8 Å²,,
"Cc1cc(O)cc(C)c1Cl [4-Chloro-3,5-dimethylphenol]",131.7 Å²,,
Cc1cc(O)ccc1Cl [4-Chloro-3-methylphenol],125.9 Å²,,
Nc1ccc(Cl)c([N+](=O)[O-])c1 [4-Chloro-3-nitroaniline],126.1 Å²,,
NS(=O)(=O)c1ccc(Cl)cc1 [4-Chlorobenzenesulphonamide],134.9 Å²,,
O=C(c1ccccc1)c1ccc(Cl)cc1 [4-Chlorobenzophenone],,,collision cross section in nitrogen [2]: 151.1 Å²
O=C(O)c1cc[c]([Hg][Cl])cc1 [4-Chloromercuribenzoic acid],143 Å²,,
Oc1ccc(Cl)cc1 [4-Chlorophenol],120.2 Å²,,
O=C(O)COc1ccc(Cl)cc1 [4-Chlorophenoxyacetic acid],140.9 Å²,,
N#CCc1ccc(Cl)cc1 [4-Chlorophenylacetonitrile],130.4 Å²,,
CC(C)(c1ccccc1)c1ccc(O)cc1 [4-Cumylphenol],157.8 Å²,,
N#Cc1ccc(C(=O)O)cc1 [4-Cyanobenzoic acid],142.1 Å²,,
CN(C)c1ccc(C=O)cc1 [4-Dimethylaminobenzaldehyde],,129 Å²,collision cross section in nitrogen [4]: 129.3 Å²
CCCCCCCCCCCCN1CCOCC1 [4-Dodecylmorpholine],,176.3 Å²,collision cross section in nitrogen [4]: 176.3 Å²
CCOc1ccc(N)cc1 [4-Ethoxyaniline],,139.8 Å²,
CCCCCCCc1ccc(O)cc1 [4-Heptylphenol],157.1 Å²,,
CCCCCCc1ccc(N)cc1 [4-Hexylaniline],,162.8 Å²,collision cross section in nitrogen [4]: 162.8 Å²
CCCCCCc1ccc(O)cc1O [4-Hexylresorcinol],150.2 Å²,,
COc1cc(C=O)ccc1O [4-Hydroxy-3-methoxybenzaldehyde],128.1 Å²,,
COc1cnccc1O [4-Hydroxy-3-methoxypyridine],,121.8 Å²,collision cross section in nitrogen [4]: 120.7 Å²
O=[N+]([O-])c1cc([As](=O)(O)O)ccc1O [4-Hydroxy-3-nitrophenylarsonic acid],141.8 Å²,145 Å²,
O=S(=O)(O)c1cc(O)c2ccc(Nc3ccccc3)cc2c1 [4-Hydroxy-7-(phenylamino)naphthalene-2-sulfonic acid],180.6 Å²,,
CC(=O)c1ccc(O)cc1 [4-Hydroxyacetophenone],125.5 Å²,,
C[C@]12CCC(=O)C(O)=C1CC[C@@H]1[C@@H]2CC[C@]2(C)C(=O)CC[C@@H]12 [4-Hydroxyandrostenedione],180 Å²,,
N#Cc1ccc(O)cc1 [4-Hydroxybenzonitrile],118.1 Å²,,

SMILES,collision cross section in nitrogen [1],collision cross section in nitrogen [3],further results
CCC(=C(c1ccc(O)cc1)c1ccc(OCCN(C)C)cc1)c1ccccc1 [4-Hydroxytamoxifen],214.6 Å²,200.9 Å²,collision cross section in nitrogen [4]: 201 Å²; collision cross section in nitrogen [2]: 196.9 Å²
Oc1ccc(I)cc1 [4-Iodophenol],124.5 Å²,,
CC(C)c1ccc(S(=O)(=O)O)cc1 [4-Isopropylbenzenesulfonic acid],147.7 Å²,,
CC(C)c1ccc(O)cc1 [4-Isopropylphenol],134.1 Å²,,
COc1ccc(N)cc1 [4-Methoxybenzenamine],,133.2 Å²,collision cross section in nitrogen [4]: 120.3 Å²
COc1ccc(O)cc1 [4-Methoxyphenol],,,collision cross section in nitrogen [5]: 123.7 Å²
COc1ccc(CC#N)cc1 [4-Methoxyphenylacetonitrile],,,collision cross section in nitrogen [4]: 127.3 Å²
CC1CN(c2ccccc2)NC1=O (centres undefined) [4-Methyl-1-phenylpyrazolidin-3-one],,,collision cross section in nitrogen [5]: 138 Å²
Cc1ccc(N)c([N+](=O)[O-])c1 [4-Methyl-2-nitroaniline],127.7 Å²,,
Cc1cc(=O)oc2cc(O)ccc12 [4-Methylumbelliferone hydrate],133.7 Å²,133 Å²,
Cc1cc(=O)oc2cc(O)ccc12 [4-Methylumbelliferone],133.3 Å²,132.6 Å²,
O=S(=O)(O)CCCN1CCOCC1 [4-Morpholinepropanesulfonic acid],149.5 Å²,142.4 Å²,collision cross section in nitrogen [4]: 142.7 Å²; collision cross section in nitrogen [2]: 154.6 Å²
Nc1cc([N+](=O)[O-])ccc1C(=O)O [4-Nitroanthranilic acid],133.5 Å²,,
O=[N+]([O-])c1cc[n+]([O-])cc1 [4-Nitropyridine-1-oxide],119.2 Å²,,
O=Nc1ccc(Nc2ccccc2)cc1 [4-Nitrosodiphenylamine],144.7 Å²,144.2 Å²,collision cross section in nitrogen [4]: 144.3 Å²
CCCCCCCCCc1ccc(O)cc1 [4-Nonylphenol],161.4 Å²,,
CCCCCCCCc1ccc(O)cc1 [4-Octylphenol],159.9 Å²,,
Oc1ccc(Oc2ccccc2)cc1 [4-Phenoxyphenol],145.7 Å²,,
Oc1ccc(-c2ccccc2)cc1 [4-Phenylphenol],139.3 Å²,,
Cc1ccc(-c2ccccc2)cc1 [4-Phenyltoluene],,,collision cross section in nitrogen [2]: 135.4 Å²
O=C(O)c1ccc(S(=O)(=O)O)cc1C(=O)O [4-Sulfophthalic acid],145.3 Å²,,
CC(=O)CCc1ccc(OC(C)=O)cc1 [4-[4-(Acetyloxy)phenyl]-2-butanone],,,collision cross section in nitrogen [2]: 146.4 Å²
CC(C)(C)c1ccc(N)cc1 [4-tert-Butylaniline],,147.6 Å²,collision cross section in nitrogen [4]: 147.3 Å²
CC(C)(C)c1ccc(OC(=O)c2ccccc2O)cc1 [4-tert-Butylphenyl salicylate],168.4 Å²,,
"c1cnc2c(n1)CCCC2 [5,6,7,8-Tetrahydroquinoxaline]",,,collision cross section in nitrogen [4]: 126.6 Å²

# Further lines, with some results ahead:
collision cross section in nitrogen [1],collision cross section in nitrogen [3],SMILES,further results
133.5 Å²,,O=S(=O)(O)c1ccc(Cl)cc1 [4-Chlorobenzenesulphonic acid],
117.2 Å²,121.6 Å²,[O-][n+]1ccc(Cl)cc1 [4-Chloropyridine 1-oxide],
122.5 Å²,,Oc1ccc(Cl)c(O)c1 [4-Chlororesorcinol],
,152.5 Å²,Cc1c(N(C)C)c(=O)n(-c2ccccc2)n1C [4-Dimethylaminoantipyrine],collision cross section in nitrogen [4]: 152.1 Å²; collision cross section in nitrogen [2]: 166.2 Å²
128.7 Å²,,CCc1ccc(O)cc1 [4-Ethylphenol],collision cross section in nitrogen [5]: 123.4 Å²
121.9 Å²,,Nc1ccc(F)c([N+](=O)[O-])c1 [4-Fluoro-3-nitroaniline],
,167.4 Å²,CCCCCCOc1ccc(N)cc1 [4-Hexyloxyaniline],collision cross section in nitrogen [4]: 168 Å²
154.7 Å²,,O=C(Oc1ccc(O)cc1)c1ccccc1 [4-Hydroxyphenyl benzoate],
,150.5 Å²,COc1ccc(Nc2ccccc2)c(C)c1 [4-Methoxy-2-methyl-N-phenylaniline],collision cross section in nitrogen [4]: 150.5 Å²; collision cross section in nitrogen [5]: 148.1 Å²
,135.7 Å²,COc1ccc(N)c(C)c1 [4-Methoxy-2-methylaniline],collision cross section in nitrogen [4]: 124.8 Å²
134.4 Å²,,Cc1ccc(S(=O)(=O)O)cc1 [4-Methylbenzenesulfonic acid hydrate],
,119.5 Å²,Cc1ccnc(N)c1 [4-Methylpyridin-2-amine],collision cross section in nitrogen [4]: 118.1 Å²
,128.2 Å²,NCCCN1CCOCC1 [4-Morpholinepropanamine],collision cross section in nitrogen [4]: 128.3 Å²
120.6 Å²,,O=[N+]([O-])c1ccc(O)cc1 [4-Nitrophenol],
,156.5 Å²,CCCCCc1ccc(N)cc1 [4-Pentylaniline],
146.9 Å²,,CCCCCc1ccc(O)cc1 [4-Pentylphenol],
134.5 Å²,,CCCc1ccc(O)cc1 [4-Propylphenol],
113.9 Å²,116.2 Å²,Oc1ccncc1 [4-Pyridinol],collision cross section in nitrogen [4]: 116 Å²
136.3 Å²,,Cc1ccc(S(N)(=O)=O)cc1 [4-Toluenesulfonamide],
,200.7 Å²,"CCN(CC)c1ccc(C=NN(c2ccccc2)c2ccccc2)cc1 [4-[(Diphenylhydrazinylidene)methyl]-N,N-diethylaniline]",collision cross section in nitrogen [4]: 189.8 Å²
139.3 Å²,,CC(C)(C)c1ccc(O)c(O)c1 [4-tert-Butylcatechol],
163 Å²,,N#Cc1ccc(CC(=O)c2cccc(C(F)(F)F)c2)cc1 [4-{2-Oxo-2-[3-(trifluoromethyl)phenyl]ethyl}benzonitrile],
160 Å²,,"O=C1NC(=O)C(c2ccccc2)(c2ccccc2)N1 [5,5-Diphenylhydantoin]",
